# Laboratory results from patent US8247533B2, “Beta helical peptide structures stable in aqueous and non-aqueous media” (The United States of America, as represented by the …, priority 2007, dated 2012).
# Peptide text beside a SMILES is read from it.
# How the values were obtained:
# physchem = conditions: aqueous medium
# Excerpt: (§1) The water solubility of these peptides/peptidometrics is defined by the correct choice of sidechain functionalities.
# [1] = Circular dichroism (CD) thermal denaturation study; assay type: physicochemical
# Excerpt: as §1
# [2] = Solubility in organic solvents (purification work); assay type: physicochemical
# Method: However, dissolution of the crude peptide in HFIP at a concentration of about 80 mg mL^−1, followed by twofold dilution with HFA.3H2O, furnished a solution that was suitable for use in RP-HPLC.
# The next attempt to repurify fraction a of the RP-HPLC purified material using gravity-driven GPC on Sephadex LH-20. These efforts were complicated by the lack of a suitable pure solvent that would satisfy the following criteria: (1) the solvent must be able to dissolve the partially purified peptide, and (2) the solvent must be sufficiently polar to prevent irreversible adsorption of the peptide to the LH-20 stationary phase. One choice was CHCl3, in which the peptide is soluble to about. 20 mM; CHCl3, however, is a nonpolar solvent. Moreover, CHCl3 is denser than LH-20 and therefore inconvenient for GPC using gravity-driven flow. However, the solvent mixture CHCl3/MeOH (65:35) satisfies both of the criteria stated above; in addition, this mixture is less dense than LH-20. A single pass of fraction a through a 2.5×55 cm column of LH-20 in CHCl3/MeOH gave material that was ≧95% pure as estimated by 1D ^1H NMR (FIG. 9c). Furthermore, even fraction b of the RP-HPLC-purified material, which contained about 30% contaminant (FIG. 9b), could be purified in this manner. […]
"solubility ([2]; CHCl3, partially purified peptide) [mM]","solubility in solvents typically used for RP-HPLC ([2]; crude peptide, MeOH, EtOH, i-PrOH, and CH3CN)",Structure (SMILES),solubility (physchem) [mM],"change of beta-hairpin structure (CD) with temperature ([1]; aqueous state, 100 mM phosphate buffered saline buffer, about 5° C. to about 95° C.)",temperature up to which helical structure resists thermal denaturation (CD) ([1]; in methanol and trifluoroethanol)
,,"CC(C)C[C@H]1NC(=O)CNC(=O)[C@@H]2CCCN2C(=O)[C@@H](C)NC(=O)[C@H]([C@@H](C)O)NC(=O)[C@@H](CC(C)C)NC(=O)[C@H]([C@@H](C)O)NC(=O)[C@@H](C(C)C)NC(=O)[C@H](CCCCN)NC(=O)[C@@H](CC(C)C)NC(=O)[C@H](CCC(=O)O)NC(=O)[C@@H](C)NC(=O)CNC(=O)[C@@H]2CCCN2C(=O)[C@@H](C(C)C)NC(=O)[C@H]([C@@H](C)O)NC(=O)[C@@H](C)NC(=O)[C@H]([C@@H](C)O)NC(=O)[C@@H](CC(C)C)NC(=O)[C@H](CCCNC(=N)N)NC(=O)[C@@H](C(C)C)NC(=O)[C@H](CCC(=O)O)NC1=O [Peptide 1] (HELM PEPTIDE1{[dL].E.[dV].R.[dL].T.[dA].T.[dV].P.G.[dA].E.[dL].K.[dV].T.[dL].T.[dA].P.G}$PEPTIDE1,PEPTIDE1,1:R1-22:R2$$$V2.0)",> 10,does not change,up to 85 °C
~20,insoluble,"CC(C)[C@@H]1NC(=O)CNC(=O)[C@H]2CCCN2C(=O)[C@H](C(C)C)NC(=O)[C@@H](C(C)C)NC(=O)[C@H](C(C)C)NC(=O)[C@@H](C(C)C)NC(=O)[C@H](C(C)C)NC(=O)[C@@H](C(C)C)NC(=O)[C@H](C(C)C)NC(=O)[C@@H](C(C)C)NC(=O)[C@H](C(C)C)NC(=O)CNC(=O)[C@H]2CCCN2C(=O)[C@H](C(C)C)NC(=O)[C@@H](C(C)C)NC(=O)[C@H](C(C)C)NC(=O)[C@@H](C(C)C)NC(=O)[C@H](C(C)C)NC(=O)[C@@H](C(C)C)NC(=O)[C@H](C(C)C)NC(=O)[C@@H](C(C)C)NC1=O [Peptide 3, cyclo{[(L-Val-D-Val)4-(L-Val-D-Pro-Gly)]2-}] (HELM PEPTIDE1{V.[dP].G.V.[dV].V.[dV].V.[dV].V.[dV].V.[dP].G.V.[dV].V.[dV].V.[dV].V.[dV]}$PEPTIDE1,PEPTIDE1,1:R1-22:R2$$$V2.0)",,,
